According to patent publication US9169219B2, “Herbicidally active 4-nitro-substituted N-(tetrazol-5-yl)-, N-(triazol-5-yl)-, and N-(1,3,4-0XADIAZOL-2-yl)aryl carboxylic acid amides” (BAYER INTELLECTUAL PROPERTY GMBH, priority 2012, dated 2015):

Legend:
Format in all cases: in vivo
[1] = system: maize; experiment: Pre-emergence test, damage to crop plants; details: 320 g/ha, visual assessment after 3 weeks
[2] = system: Abutilon theophrasti; experiment: Post-emergence herbicidal action against weed plants; details: 504 h, one-leaf stage, visual assessment after about 3 weeks vs untreated controls (100% = plants have died)
Method: (§1) 2. Post-emergence Herbicidal Action Against Weed Plants Seeds of monocotyledonous and dicotyledonous weed and crop plants are placed in sandy loam in wood-fiber pots, covered with soil and cultivated in a greenhouse under good growth conditions. 2 to 3 weeks after sowing, the test plants are treated at the one-leaf stage. The inventive compounds formulated in the form of wettable powders (WP) or as emulsion concentrates (EC) are then sprayed onto the green parts of the plants as an aqueous suspension or emulsion at a water application rate of 600 to 800 I/ha (converted) with addition of 0.2% wetting agent. After the test plants have been left to stand in the greenhouse under optimal growth conditions for about 3 weeks, the action of the formulations is assessed visually in comparison to untreated controls (herbicidal action in percent (%): 100% activity=the plants have died, 0% activity=like control plants).

[3] = system: Stellaria media; experiment: as above; details: 504 h, one-leaf stage, visual assessment after about 3 weeks vs untreated controls (100% = plants have died)
Method: as §1

SMILES: Cn1nnnc1NC(=O)c1ccc([N+](=O)[O-])c(OCC2OCCO2)c1Cl [1-78]
- damage in maize [1]: no damage whatsoever
- pest or weed control at 80 g/ha [2]: ≥ 80%
- pest or weed control at 80 g/ha [3]: ≥ 80%

SMILES: Cn1nnnc1NC(=O)c1ccc([N+](=O)[O-])c(OCC2COCCO2)c1Br (stereo not shown) [1-34]
- damage in maize [1]: no damage whatsoever
- pest or weed control at 80 g/ha [2]: ≥ 80%
- pest or weed control at 80 g/ha [3]: ≥ 80%

SMILES: COc1c([N+](=O)[O-])ccc(C(=O)Nc2nnnn2C)c1Br [1-1, 2-bromo-3-methoxy-N-(1-methyl-1H-tetrazol-5-yl)-4-nitrobenzamide]
- pest or weed control at 80 g/ha [2]: ≥ 80%
- pest or weed control at 80 g/ha [3]: ≥ 80%

SMILES: COc1c([N+](=O)[O-])ccc(C(=O)Nc2nnnn2C)c1Cl [1-44]
- pest or weed control at 80 g/ha [2]: ≥ 80%
- pest or weed control at 80 g/ha [3]: ≥ 80%

SMILES: COCCOc1c([N+](=O)[O-])ccc(C(=O)Nc2nnnn2C)c1Cl [1-61]
- damage in maize [1]: no damage whatsoever

SMILES: CCn1nnnc1NC(=O)c1ccc([N+](=O)[O-])c(OCCOC)c1Cl [2-61]
- damage in maize [1]: no damage whatsoever

SMILES: CCn1nnnc1NC(=O)c1ccc([N+](=O)[O-])c(OCC2COCCO2)c1C (stereo not shown) [2-120]
- pest or weed control at 80 g/ha [2]: ≥ 80%
- pest or weed control at 80 g/ha [3]: ≥ 80%

SMILES: CCn1nnnc1NC(=O)c1ccc([N+](=O)[O-])c(OCCCOC)c1Cl [2-62]
- damage in maize [1]: no damage whatsoever

SMILES: CCn1nnnc1NC(=O)c1ccc([N+](=O)[O-])c(OCCCOC)c1Br [2-19]
- damage in maize [1]: no damage whatsoever

SMILES: CCn1nnnc1NC(=O)c1ccc([N+](=O)[O-])c(OC)c1Cl [2-44]
- pest or weed control at 80 g/ha [2]: ≥ 80%
- pest or weed control at 80 g/ha [3]: ≥ 80%

SMILES: CCn1nnnc1NC(=O)c1ccc([N+](=O)[O-])c(OCCOC)c1C [2-104]
- damage in maize [1]: no damage whatsoever

SMILES: CCn1nnnc1NC(=O)c1ccc([N+](=O)[O-])c(OCC2COCCO2)c1Br (stereo not shown) [2-34]
- pest or weed control at 80 g/ha [2]: ≥ 80%
- pest or weed control at 80 g/ha [3]: ≥ 80%

SMILES: CCOCCOc1c([N+](=O)[O-])ccc(C(=O)Nc2nnnn2C)c1Br [1-20]
- damage in maize [1]: no damage whatsoever

SMILES: COCCCOc1c([N+](=O)[O-])ccc(C(=O)Nc2nnnn2C)c1Cl [1-62]
- damage in maize [1]: no damage whatsoever

SMILES: Cn1nnnc1NC(=O)c1ccc([N+](=O)[O-])c(OCC2COCCO2)c1Cl (stereo not shown) [1-77]
- damage in maize [1]: no damage whatsoever
- pest or weed control at 80 g/ha [2]: ≥ 80%
- pest or weed control at 80 g/ha [3]: ≥ 80%

SMILES: CCn1nnnc1NC(=O)c1ccc([N+](=O)[O-])c(OC)c1Br [2-1]
- pest or weed control at 80 g/ha [2]: ≥ 80%
- pest or weed control at 80 g/ha [3]: ≥ 80%

SMILES: Cc1c(C(=O)Nc2nnnn2C)ccc([N+](=O)[O-])c1OCC1COCCO1 (stereo not shown) [1-119]
- pest or weed control at 80 g/ha [2]: ≥ 80%
- pest or weed control at 80 g/ha [3]: ≥ 80%

SMILES: CCn1nnnc1NC(=O)c1ccc([N+](=O)[O-])c(OCC(=O)N(C)C)c1C [2-123]
- damage in maize [1]: no damage whatsoever
